Among the test systems are NCI-H460; SF-268; UACC-62; NCI-H226; SW-620; SN12C; OVCAR-4; EKVX; SK-OV-3; M14; IGROV-1; CAKI-1; RXF 393; SK-MEL-2; HCC 2998; HOP-62; HOP-92; T47D; HL-60.
Common to all, as to test: NCI tumour cell line growth inhibition, 48 h

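Five concentrations, 48 hours, 96-well plates. GI50 = concentration required for 50% inhibition of growth.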 The source made the active and inactive calls. Rule as the data show it: active = GI50 up to about 1.1 µM and inactive = higher.

With `CNC(=S)N/N=C(\C(=N/NC(=S)NC)c1ccccn1)c1ccccn1`, the GI50 in the assay on NCI-H460 was 0.348 µM (active); in the assay with SF-268, 1.19 µM (inactive); in the assay on UACC-62, 4.59 µM (inactive); in the assay with NCI-H226 it was 2 µM (inactive); in the assay with SW-620, 1.24 µM (inactive); with SN12C, 4.08 µM (inactive). Also, the GI50 with OVCAR-4 was 10.9 µM (inactive); in the assay with EKVX it was 1.63 µM (inactive); with SK-OV-3 it was 0.726 µM (active); with M14, 2.14 µM (inactive); in the assay on IGROV-1, 0.759 µM (active); with CAKI-1, 5.04 µM (inactive). In addition, the GI50 in the assay on RXF 393 was 5.07 µM (inactive); in the assay on SK-MEL-2, 14.3 µM (inactive); in the assay on HCC 2998 it was > 23 µM (inactive); with HOP-62, 7.78 µM (inactive); with HOP-92, 15.2 µM (inactive).
In the case of `CO[C@]12C[C@H](CNC(=O)c3ccc[nH]3)O[C@H]1NC(=O)N2`, the GI50 in the assay on NCI-H460, in the assay with SF-268, with UACC-62, with NCI-H226, with SW-620 and in the assay with SN12C was > 100 µM (inactive) each time. The GI50 in the assay on EKVX, in the assay with SK-OV-3, in the assay on M14, in the assay on IGROV-1, with CAKI-1 and in the assay with SK-MEL-2 was > 100 µM (inactive) in each case. The GI50 in the assay with HOP-62, in the assay on HOP-92, with T47D and in the assay with HL-60 was > 100 µM (inactive) each time.
Regarding `CC(C)(C)OC(=O)C(C#N)C(=O)c1ccc(C(=O)O)[nH]1` (centres undefined), the GI50 in the assay with NCI-H460 is 29.7 µM (inactive); with SF-268, 47.4 µM (inactive); in the assay on UACC-62, 18.3 µM (inactive); in the assay on NCI-H226, 38 µM (inactive); with SW-620 it was 34.9 µM (inactive); in the assay on SN12C, 43.1 µM (inactive). Moreover, the GI50 with OVCAR-4 was 19.5 µM (inactive); with EKVX, 29.2 µM (inactive); in the assay on SK-OV-3, 42 µM (inactive); with M14, 44.2 µM (inactive); with CAKI-1, 18.8 µM (inactive); in the assay with SK-MEL-2, 23.6 µM (inactive). Also, the GI50 in the assay on HOP-92 is 12 µM (inactive); in the assay on T47D, 34.6 µM (inactive); in the assay on HL-60 it was 21.7 µM (inactive).
On to `CC(O)c1nc(C#N)c(N)o1` (centres undefined), for which the GI50 with SF-268, in the assay on UACC-62, with NCI-H226, with SW-620, in the assay with SN12C and in the assay with EKVX was > 100 µM (inactive) throughout. For the same molecule, the GI50 with SK-OV-3, in the assay on M14, in the assay on IGROV-1, with CAKI-1, with SK-MEL-2 and in the assay on HOP-62 was > 100 µM (inactive) in each case. The GI50 in the assay with HOP-92, in the assay on T47D and in the assay with HL-60 was > 100 µM (inactive) each time.
Consider `COC(=O)c1c(O)c2c(c3c1OC(C)(C)CC3)OC(C)(C)CC2`, for which the GI50 was 22.3 µM (inactive) in the assay with NCI-H460; 22.9 µM (inactive) in the assay on SF-268; 18.9 µM (inactive) in the assay with UACC-62; 19.3 µM (inactive) in the assay with NCI-H226; 17.5 µM (inactive) with SW-620; 16 µM (inactive) in the assay on SN12C. Also, the GI50 in the assay with OVCAR-4 was 32.2 µM (inactive); in the assay on EKVX it was 21.2 µM (inactive); in the assay on SK-OV-3 it was 27.3 µM (inactive); in the assay with M14, 19.1 µM (inactive); with IGROV-1, 19.6 µM (inactive); in the assay on CAKI-1 it was 21.8 µM (inactive). The GI50 in the assay with HCC 2998 is 16.4 µM (inactive); in the assay with HOP-62, 21 µM (inactive); in the assay with T47D, 21.8 µM (inactive); in the assay with HL-60, 15.1 µM (inactive).
For the molecule `C=C1C(=O)OC2C=C(CCC(C)=O)C(C)C(OC(C)=O)CC12` (centres undefined), the GI50 was 18.7 µM (inactive) with NCI-H460; 16.1 µM (inactive) with SF-268; 12.6 µM (inactive) in the assay with UACC-62; 13.6 µM (inactive) in the assay on NCI-H226; 0.313 µM (active) in the assay with SW-620; 15.7 µM (inactive) with SN12C. Further, the GI50 with OVCAR-4 is 13.1 µM (inactive); in the assay with EKVX, 12.9 µM (inactive); in the assay on M14 it was 5.42 µM (inactive); in the assay with IGROV-1, 21.5 µM (inactive); in the assay with CAKI-1, 8.83 µM (inactive); with RXF 393, 2.41 µM (inactive). For the same molecule, the GI50 with SK-MEL-2 was 14.2 µM (inactive); in the assay on HCC 2998, 9.93 µM (inactive); in the assay with HOP-62, > 10 µM (inactive); with HOP-92, 3.99 µM (inactive); in the assay on HL-60, 3.33 µM (inactive).
On to `COc1cccc(N2C(=O)CSC2c2cc(OC)c(OC)c(OC)c2)c1` (centres undefined), for which the GI50 in the assay with NCI-H460 is 27.8 µM (inactive); in the assay with SF-268 it was > 100 µM (inactive); in the assay with UACC-62, 34.2 µM (inactive); in the assay with NCI-H226, 26.7 µM (inactive); in the assay on SW-620, 39.7 µM (inactive); with SN12C, 44.1 µM (inactive). Besides, the GI50 in the assay on OVCAR-4 is 47.3 µM (inactive); with EKVX, 49.7 µM (inactive); in the assay on SK-OV-3, 26.7 µM (inactive); with M14 it was 27.7 µM (inactive); in the assay with IGROV-1 it was 44.6 µM (inactive); with CAKI-1, 30.8 µM (inactive). The GI50 is > 100 µM (inactive) with SK-MEL-2, 22.7 µM (inactive) with HCC 2998, > 100 µM (inactive) in the assay on HOP-92 and 31.7 µM (inactive) with HL-60.
For `COc1ccc(-c2csc(-n3c(-c4ccccc4)nc4c(Br)cc(Br)cc4c3=O)n2)cc1`, the GI50 in the assay with NCI-H460 is 34.2 µM (inactive); in the assay with SF-268 it was 15.6 µM (inactive); in the assay with UACC-62, 28.5 µM (inactive); in the assay on NCI-H226, 27.7 µM (inactive); in the assay with SW-620 it was 33.6 µM (inactive); with OVCAR-4 it was 63.2 µM (inactive). Further, the GI50 in the assay on EKVX was 4.52 µM (inactive); with SK-OV-3, 28.1 µM (inactive); in the assay on M14, 29.4 µM (inactive); in the assay with IGROV-1, 2.92 µM (inactive); in the assay with CAKI-1, 35.7 µM (inactive); with RXF 393, 26.3 µM (inactive). Besides, the GI50 was 47.2 µM (inactive) with SK-MEL-2; 28.1 µM (inactive) in the assay with HCC 2998; 40.1 µM (inactive) with HOP-62; 5.14 µM (inactive) in the assay with HOP-92; 20.2 µM (inactive) with HL-60.
`NC(=O)c1ccc(/N=N/O)nc1`: the GI50 in the assay on NCI-H460, in the assay with SF-268, in the assay with UACC-62, in the assay with NCI-H226, in the assay on SW-620 and with SN12C was > 100 µM (inactive) each time. Besides, the GI50 in the assay on OVCAR-4, with EKVX, in the assay with SK-OV-3, in the assay on M14, with IGROV-1 and in the assay on CAKI-1 was > 100 µM (inactive) each time. The GI50 in the assay on HCC 2998, in the assay on HOP-62, in the assay on T47D and with HL-60 was > 100 µM (inactive) throughout.
As to `O=C1/C(=C/c2ccc(Cl)cc2)CCCc2ccccc21`, the GI50 in the assay with NCI-H460 is 17.7 µM (inactive); in the assay on SF-268, 13.9 µM (inactive); with UACC-62 it was 14.5 µM (inactive); in the assay with NCI-H226, 16.4 µM (inactive); in the assay on SW-620 it was 15.4 µM (inactive); in the assay with SN12C, 18.7 µM (inactive). Further, the GI50 with OVCAR-4 was 14.9 µM (inactive); in the assay on EKVX, 14.8 µM (inactive); in the assay with SK-OV-3, 43.1 µM (inactive); in the assay with M14 it was 15.6 µM (inactive); in the assay on IGROV-1, 18.2 µM (inactive); with CAKI-1, 39.4 µM (inactive). The GI50 in the assay with SK-MEL-2 was 14.7 µM (inactive); in the assay with HCC 2998 it was 22.2 µM (inactive); in the assay with HOP-62, 24.5 µM (inactive); with HOP-92, 21.5 µM (inactive); with HL-60 it was 13.7 µM (inactive).
Turning to `COc1cccc(/C=C2\CCCCCC2=O)c1`, the GI50 in the assay with NCI-H460 was 52 µM (inactive); with SF-268, > 100 µM (inactive); in the assay on UACC-62, > 100 µM (inactive); with NCI-H226, > 100 µM (inactive); in the assay with SW-620 it was > 100 µM (inactive); in the assay on SN12C, > 100 µM (inactive). Moreover, the GI50 in the assay with OVCAR-4, in the assay with EKVX, with SK-OV-3, with M14, in the assay with IGROV-1 and in the assay with CAKI-1 was > 100 µM (inactive) in each case. The GI50 in the assay with SK-MEL-2, in the assay on HCC 2998, in the assay on HOP-62, with HOP-92 and in the assay on T47D was > 100 µM (inactive) each time.
With `CC1=C2CC3=C(C)C(=O)O[C@H]3C[C@@H](C)[C@@H]2CC1` [AMERICANOLIDE D], the GI50 in the assay on NCI-H460, in the assay with SF-268, in the assay on UACC-62, in the assay on NCI-H226, with SW-620 and in the assay with OVCAR-4 was > 100 µM (inactive) in each case. Further, the GI50 with EKVX, in the assay on SK-OV-3, in the assay with M14, in the assay with IGROV-1, in the assay with CAKI-1 and in the assay on SK-MEL-2 was > 100 µM (inactive) in each case. Further, the figures for the GI50 in the assay on HCC 2998, with HOP-92 and with HL-60 were > 100 µM (inactive), > 100 µM (inactive) and 80.5 µM (inactive), respectively.

(Values after ChEMBL document CHEMBL1201862, “PubChem BioAssay data set” (2004).)
